Like-named read-outs stand apart in the source and are kept apart here.
Key:
Assay in all cases: Test D pre-/postemergence plant response
Type in all cases: in vivo
[1] = tested on: blackgrass (Alopecurus myosuroides); details: Alopecurus myosuroides; for pest or weed control at 16 g/ha: 16 g ai/ha; for pest or weed control at 31 g/ha: 31 g ai/ha; for pest or weed control at 62 g/ha: 62 g ai/ha; for pest or weed control at 125 g/ha: 125 g ai/ha
Source text: (§1) Seeds of plant species selected from blackgrass (Alopecurus myosuroides), Italian ryegrass (Lolium multiflorum), winter wheat (Triticum aestivum), galium (catchweed bedstraw, Galium aparine), corn (Zea mays), large (Lg) crabgrass (Digitaria sanguinalis), giant foxtail (Setaria faberii), johnsongrass (Sorghum halepense), lambsquarters (Chenopodium album), morningglory (Ipomoea coccinea), yellow nutsedge (Cyperus esculentus), pigweed (Amaranthus retroflexus), ragweed (common ragweed, Ambrosia elatior), soybean (Glycine max), bamyardgrass (Echinochloa crus-galli), oilseed rape (Brassica napus), waterhemp (common waterhemp, Amaranthus rudis), and velvetleaf (Abutilon theophrasti) were planted into a blend of loam soil and sand and treated preemergence with test chemicals formulated in a non-phytotoxic solvent mixture which included a surfactant. At the same time, plants selected from these crop and weed species and also kochia (Kochia scoparia), wild oat (Avena fatua), and chickweed (common chickweed, Stellaria media) were planted in pots containing Redi-Earth® planting medium (Scotts Company, 14111 Scottslawn Road, Marysville, Ohio 43041) comprising spaghnum peat moss, vermiculite, wetting agent and starter nutrients and treated with postemergence applications of test chemicals formulated in the same manner. Plants ranged in height from 2 to 18 cm (1- to 4-leaf stage) for postemergence treatments. Treated plants and controls were maintained in a greenhouse for 13 to 15 days, after which time all species were compared to controls and visually evaluated. Plant response ratings, summarized in Table D, are based on a scale of 0 to 100 where 0 is no effect and 100 is complete control. A dash (-) response means no test result.

[2] = tested on: Italian ryegrass (Lolium multiflorum); details: Lolium multiflorum; for pest or weed control at 16 g/ha: 16 g ai/ha; for pest or weed control at 31 g/ha: 31 g ai/ha; for pest or weed control at 62 g/ha: 62 g ai/ha; for pest or weed control at 125 g/ha: 125 g ai/ha
Source text: as §1

[3] = tested on: soybean (Glycine max); details: Glycine max; for plant injury at 16 g/ha: 16 g ai/ha; for plant injury at 31 g/ha: 31 g ai/ha; for plant injury at 62 g/ha: 62 g ai/ha; for plant injury at 125 g/ha: 125 g ai/ha
Source text: as §1

[4] = tested on: galium (catchweed bedstraw, Galium aparine); details: Galium; for pest or weed control at 16 g/ha: 16 g ai/ha; for pest or weed control at 31 g/ha: 31 g ai/ha; for pest or weed control at 62 g/ha: 62 g ai/ha; for pest or weed control at 125 g/ha: 125 g ai/ha
Source text: as §1

[5] = tested on: lambsquarters (Chenopodium album); details: Chenopodium album; for pest or weed control at 16 g/ha: 16 g ai/ha; for pest or weed control at 31 g/ha: 31 g ai/ha; for pest or weed control at 62 g/ha: 62 g ai/ha; for pest or weed control at 125 g/ha: 125 g ai/ha
Source text: as §1

[6] = tested on: barnyardgrass (Echinochloa crus-galli); details: Echinochloa crus-galli; for pest or weed control at 16 g/ha: 16 g ai/ha; for pest or weed control at 16 g/ha / pest or weed control at 31 g/ha: scale 0 to 100 (0 no effect, 100 complete control); for pest or weed control at 31 g/ha: 31 g ai/ha; for pest or weed control at 62 g/ha: 62 g ai/ha; for pest or weed control at 125 g/ha: 125 g ai/ha
Source text: as §1

[7] = tested on: large (Lg) crabgrass (Digitaria sanguinalis); details: Digitaria sanguinalis; for pest or weed control at 16 g/ha: 16 g ai/ha; for pest or weed control at 31 g/ha: 31 g ai/ha; for pest or weed control at 62 g/ha: 62 g ai/ha; for pest or weed control at 125 g/ha: 125 g ai/ha
Source text: as §1

[8] = tested on: yellow nutsedge (Cyperus esculentus); details: Cyperus, pre-emergence, Preemergence
Source text: as §1

[9] = tested on: ragweed (common ragweed, Ambrosia elatior); details: Ambrosia artemisiifolia; for pest or weed control at 16 g/ha: 16 g ai/ha; for pest or weed control at 31 g/ha: 31 g ai/ha; for pest or weed control at 62 g/ha: 62 g ai/ha; for pest or weed control at 125 g/ha: 125 g ai/ha
Source text: as §1

[10] = tested on: velvetleaf (Abutilon theophrasti); details: Abutilon theophrasti, post-emergence, Postemergence, scale 0 to 100 (0 no effect, 100 complete control), read-out: Velvetleaf plant response rating
Source text: as §1

[11] = post-emergence, Postemergence, scale 0 to 100 (0 no effect, 100 complete control), read-out: Blackgrass plant response rating
[12] = post-emergence, Postemergence, scale 0 to 100, 0 no effect, 100 complete control, read-out: Plant response rating, Blackgrass
[13] = pre-emergence, Preemergence, scale 0 to 100 (0 no effect, 100 complete control), read-out: Plant response rating, Blackgrass
[14] = post-emergence, Postemergence, scale 0 to 100 (0 no effect, 100 complete control), read-out: Ryegrass, Italian plant response rating
[15] = post-emergence, Postemergence, scale 0 to 100, 0 no effect, 100 complete control, read-out: Plant response rating, Ryegrass, Italian
[16] = pre-emergence, Preemergence, scale 0 to 100 (0 no effect, 100 complete control), read-out: Plant response rating, Ryegrass, Italian
[17] = post-emergence, Postemergence, scale 0 to 100 (0 no effect, 100 complete control), read-out: Soybean plant response rating
[18] = post-emergence, Postemergence, scale 0 to 100, 0 no effect, 100 complete control, read-out: Plant response rating, Soybean
[19] = pre-emergence, Preemergence, scale 0 to 100 (0 no effect, 100 complete control), read-out: Plant response rating, Soybean
[20] = post-emergence, Postemergence, scale 0 to 100 (0 no effect, 100 complete control), read-out: Galium plant response rating
[21] = post-emergence, Postemergence, scale 0 to 100, 0 no effect, 100 complete control, read-out: Plant response rating, Galium
[22] = pre-emergence, Preemergence, scale 0 to 100 (0 no effect, 100 complete control), read-out: Plant response rating, Galium
[23] = post-emergence, Postemergence, scale 0 to 100 (0 no effect, 100 complete control), read-out: Lambsquarters plant response rating
[24] = post-emergence, Postemergence, scale 0 to 100, 0 no effect, 100 complete control, read-out: Plant response rating, Lambsquarters
[25] = pre-emergence, Preemergence, scale 0 to 100 (0 no effect, 100 complete control), read-out: Plant response rating, Lambsquarters
[26] = post-emergence, Postemergence, read-out: Barnyardgrass plant response rating
[27] = post-emergence, Postemergence, scale 0 to 100, 0 no effect, 100 complete control, read-out: Plant response rating, Barnyardgrass
[28] = pre-emergence, Preemergence, read-out: Plant response rating (scale 0 to 100), Barnyardgrass
[29] = pre-emergence, Preemergence, read-out: Plant response rating, Barnyardgrass
[30] = post-emergence, Postemergence, scale 0 to 100 (0 no effect, 100 complete control), read-out: Crabgrass, Large plant response rating
[31] = post-emergence, Postemergence, scale 0 to 100, 0 no effect, 100 complete control, read-out: Plant response rating, Crabgrass, Large
[32] = pre-emergence, Preemergence, scale 0 to 100 (0 no effect, 100 complete control), read-out: Plant response rating, Crabgrass, Large
[33] = post-emergence, Postemergence, scale 0 to 100 (0 no effect, 100 complete control), read-out: Ragweed plant response rating
[34] = post-emergence, Postemergence, scale 0 to 100, 0 no effect, 100 complete control, read-out: Plant response rating, Ragweed
[35] = pre-emergence, Preemergence, scale 0 to 100 (0 no effect, 100 complete control), read-out: Plant response rating, Ragweed

FC(F)c1cc(-c2ccccc2Oc2ncc(Cl)cn2)on1 [Compound 53, 5-chloro-2-[2-[3-(difluoromethyl)-5-isoxazolyl]phenoxy]pyrimidine]
85%: pest or weed control at 31 g/ha [4, 20] | pest or weed control at 16 g/ha [4, 22] | pest or weed control at 125 g/ha ([9]; pre-emergence, Preemergence, read-out: Plant response rating (scale 0 to 100), Ragweed)
20%: pest or weed control at 62 g/ha [1, 12] | pest or weed control at 31 g/ha [7, 30] | pest or weed control at 16 g/ha ([8]; 16 g ai/ha, scale 0 to 100 (0 no effect, 100 complete control), read-out: Plant response rating, Nutsedge, Yellow)
100%: pest or weed control at 62 g/ha [4, 22] | pest or weed control at 62 g/ha [5, 24] | pest or weed control at 125 g/ha [5, 24] | pest or weed control at 125 g/ha ([5]; pre-emergence, Preemergence, read-out: Plant response rating (scale 0 to 100), Lambsquarters) | pest or weed control at 16 g/ha [5, 25] | pest or weed control at 31 g/ha [5, 25] | pest or weed control at 62 g/ha [5, 25] | pest or weed control at 125 g/ha ([7]; pre-emergence, Preemergence, read-out: Plant response rating (scale 0 to 100), Crabgrass, Large)
70%: pest or weed control at 16 g/ha [5, 23]
65%: pest or weed control at 16 g/ha [7, 32]
30%: pest or weed control at 125 g/ha [1, 12] | pest or weed control at 125 g/ha [7, 31]
10%: pest or weed control at 31 g/ha [2, 16] | pest or weed control at 31 g/ha [6, 26] | pest or weed control at 16 g/ha [7, 30]
25%: pest or weed control at 31 g/ha [1, 13] | plant injury at 31 g/ha [3, 19] | pest or weed control at 62 g/ha [6, 27]
60%: pest or weed control at 125 g/ha ([2]; pre-emergence, Preemergence, read-out: Plant response rating (scale 0 to 100), Ryegrass, Italian) | plant injury at 16 g/ha [3, 17] | pest or weed control at 16 g/ha [4, 20] | pest or weed control at 31 g/ha ([10]; 31 g ai/ha)
50%: pest or weed control at 16 g/ha [9, 33] | pest or weed control at 31 g/ha [9, 33]
98%: plant injury at 125 g/ha [3, 18] | pest or weed control at 125 g/ha ([4]; pre-emergence, Preemergence, read-out: Plant response rating (scale 0 to 100), Galium) | pest or weed control at 62 g/ha [7, 32]
0%: pest or weed control at 16 g/ha [2, 14] | pest or weed control at 16 g/ha [2, 16] | plant injury at 16 g/ha [3, 19] | pest or weed control at 16 g/ha [6, 29] | pest or weed control at 31 g/ha ([8]; 31 g ai/ha, scale 0 to 100 (0 no effect, 100 complete control), read-out: Plant response rating, Nutsedge, Yellow) | pest or weed control at 62 g/ha ([8]; 62 g ai/ha, scale 0 to 100 (0 no effect, 100 complete control), read-out: Plant response rating, Nutsedge, Yellow) | pest or weed control at 16 g/ha [9, 35]
90%: pest or weed control at 62 g/ha [1, 13] | plant injury at 31 g/ha [3, 17] | pest or weed control at 125 g/ha [4, 21]
95%: pest or weed control at 125 g/ha ([1]; pre-emergence, Preemergence, read-out: Plant response rating (scale 0 to 100), Blackgrass) | plant injury at 62 g/ha [3, 18] | pest or weed control at 62 g/ha [4, 21] | pest or weed control at 31 g/ha [4, 22] | pest or weed control at 125 g/ha [6, 28] | pest or weed control at 31 g/ha [7, 32]
80%: plant injury at 125 g/ha ([3]; pre-emergence, Preemergence, read-out: Plant response rating (scale 0 to 100), Soybean) | pest or weed control at 31 g/ha [5, 23]
40%: pest or weed control at 31 g/ha [1, 11] | pest or weed control at 62 g/ha [6, 28] | pest or weed control at 31 g/ha [9, 35]
55%: plant injury at 62 g/ha [3, 19] | pest or weed control at 62 g/ha [9, 34] | pest or weed control at 125 g/ha [9, 34] | pest or weed control at 62 g/ha [9, 35] | pest or weed control at 16 g/ha ([10]; 16 g ai/ha)
35%: pest or weed control at 125 g/ha [6, 27]
15%: pest or weed control at 62 g/ha [2, 16] | pest or weed control at 62 g/ha [7, 31]
5%: pest or weed control at 16 g/ha [1, 11] | pest or weed control at 16 g/ha [1, 13] | pest or weed control at 31 g/ha [2, 14] | pest or weed control at 62 g/ha [2, 15] | pest or weed control at 125 g/ha [2, 15] | pest or weed control at 16 g/ha [6, 26] | pest or weed control at 31 g/ha [6, 29] | pest or weed control at 125 g/ha ([8]; 125 g ai/ha, read-out: Plant response rating (scale 0 to 100), Nutsedge, Yellow)

Reference: patent publication US10131652B2, “Pyrimidinyloxy benzene derivatives as herbicides” (E. I. DU PONT DE NEMOURS AND COMPANY, priority 2014, dated 2018)
